Measurements from ChEMBL document CHEMBL1147193, “New 5-substituted thiazolo[3,2-b][1,2,4]triazol-6-ones: synthesis and anticancer evaluation” (2007).

Columns and labels:
Type in all cases: functional
OVCAR-3 = assay: Growth inhibition of human OVCAR-3 cells after 48 hrs by SRB protein assay; conditions: OVCAR-3, 48 h
OVCAR-4 = assay: Growth inhibition of human OVCAR4 cells after 48 hrs by SRB protein assay; conditions: OVCAR-4, 48 h
OVCAR-5 = assay: Growth inhibition of human OVCAR5 cells after 48 hrs by SRB protein assay; conditions: OVCAR-5, 48 h
OVCAR-8 = assay: Growth inhibition of human OVCAR8 cells after 48 hrs by SRB protein assay; conditions: OVCAR-8, 48 h
786-0 = assay: Growth inhibition of human 786-0 cells after 48 hrs by SRB protein assay; conditions: 786-0, 48 h
ACHN = assay: Growth inhibition of human ACHN cells after 48 hrs by SRB protein assay
CAKI-1 = assay: Growth inhibition of human CAKI1 cells after 48 hrs by SRB protein assay; conditions: CAKI-1, 48 h
A549 = assay: Growth inhibition of human A549/ATCC cells after 48 hrs by SRB protein assay; conditions: A549, 48 h
IGROV-1 = assay: Growth inhibition of human IGROV1 cells after 48 hrs by SRB protein assay; conditions: IGROV-1, 48 h
CCRF-CEM = assay: Growth inhibition of human CCRF-CEM cells after 48 hrs by SRB protein assay
SW-620 = assay: Growth inhibition of human SW620 cells after 48 hrs by SRB protein assay; conditions: SW-620, 48 h
BT-549 = assay: Growth inhibition of human BT549 cells after 48 hrs by SRB protein assay; conditions: BT-549, 48 h
Hs-578T = assay: Growth inhibition of human HS578T cells after 48 hrs by SRB protein assay
RPMI-8226 = assay: Growth inhibition of human RPMI8226 cells after 48 hrs by SRB protein assay; conditions: RPMI-8226, 48 h
SF-268 = assay: Anticancer activity against human SF268 cells assessed as growth of cells at 100 uM relative to untreated cells
K562 = assay: Growth inhibition of human K562 cells after 48 hrs by SRB protein assay; conditions: K562, 48 h
HOP-62 = assay: Growth inhibition of human HOP62 cells after 48 hrs by SRB protein assay; conditions: HOP-62, 48 h
HOP-92 = assay: Growth inhibition of human HOP92 cells after 48 hrs by SRB protein assay; conditions: HOP-92, 48 h
NCI-H226 = assay: Growth inhibition of human NCI-H226 cells after 48 hrs by SRB protein assay; conditions: NCI-H226, 48 h
NCI-H322M = assay: Growth inhibition of human NCI-H322M cells after 48 hrs by SRB protein assay
NCI-H460 = assay: Growth inhibition of human NCI-H460 cells after 48 hrs by SRB protein assay; conditions: NCI-H460, 48 h
NCI-H522 = assay: Growth inhibition of human NCI-H522 cells after 48 hrs by SRB protein assay; conditions: NCI-H522, 48 h
COLO 205 = assay: Growth inhibition of human COLO205 cells after 48 hrs by SRB protein assay; conditions: COLO 205, 48 h
HCC 2998 = assay: Growth inhibition of human HCC2998 cells after 48 hrs by SRB protein assay; conditions: HCC 2998, 48 h
HCT-15 = assay: Growth inhibition of human HCT15 cells after 48 hrs by SRB protein assay; conditions: HCT-15, 48 h
HT-29 = assay: Growth inhibition of human HT29 cells after 48 hrs by SRB protein assay; conditions: HT-29, 48 h
[1] = Growth inhibition of human MALME 3M cells after 48 hrs by SRB protein assay
M14 = assay: Growth inhibition of human M14 cells after 48 hrs by SRB protein assay; conditions: M14, 48 h
SK-MEL-2 = assay: Growth inhibition of human SK-MEL-2 cells after 48 hrs by SRB protein assay; conditions: SK-MEL-2, 48 h
SK-MEL-5 = assay: Growth inhibition of human SK-MEL-5 cells after 48 hrs by SRB protein assay; conditions: SK-MEL-5, 48 h
UACC-257 = assay: Growth inhibition of human UACC257 cells after 48 hrs by SRB protein assay; conditions: UACC-257, 48 h
UACC-62 = assay: Growth inhibition of human UACC62 cells after 48 hrs by SRB protein assay; conditions: UACC-62, 48 h
RXF 393 = assay: Growth inhibition of human RXF393 cells after 48 hrs by SRB protein assay; conditions: RXF 393, 48 h
TK-10 = assay: Growth inhibition of human TK10 cells after 48 hrs by SRB protein assay; conditions: TK-10, 48 h
SN12C = assay: Growth inhibition of human SN12C cells after 48 hrs by SRB protein assay
MCF7 = assay: Growth inhibition of human MCF7 cells after 48 hrs by SRB protein assay; conditions: MCF7, 48 h
NCI/ADR-RES = assay: Growth inhibition of human NCI/ADR-RES cells after 48 hrs by SRB protein assay
MDA-MB-435 = assay: Growth inhibition of human MDA-MB-435 cells after 48 hrs by SRB protein assay; conditions: MDA-MB-435, 48 h
T47D = assay: Growth inhibition of human T47D cells after 48 hrs by SRB protein assay

GI50 (OVCAR-3): 21.9 µM | GI50 (OVCAR-4): 31.6 µM | GI50 (OVCAR-5): 22.4 µM | GI50 (OVCAR-8): > 100 µM | GI50 (786-0): 20.4 µM | GI50 (ACHN): 17.4 µM | GI50 (A549): > 100 µM | GI50 (CCRF-CEM): 19.1 µM | GI50 (SW-620): 32.4 µM | GI50 (BT-549): 37.2 µM | GI50 (RPMI-8226): 24 µM | GI50 (K562): 19.1 µM | GI50 (NCI-H226): 91.2 µM | GI50 (NCI-H322M): > 100 µM | GI50 (NCI-H460): > 100 µM | GI50 (NCI-H522): 26.9 µM | GI50 (COLO 205): 19.5 µM | GI50 (HCC 2998): 38 µM | GI50 (HCT-15): 15.8 µM | GI50 (HT-29): 28.8 µM | GI50 (SK-MEL-2): > 100 µM | GI50 (SK-MEL-5): > 100 µM | GI50 (MCF7): 43.7 µM | GI50 (MDA-MB-435): 55 µM | GI50 (T47D): 24 µM
SMILES: O=C(CC1Sc2ncnn2C1=O)Nc1ccc(Cl)cc1 (configuration not stated)
TGI (OVCAR-3; read-out: Log TGI (converted)): 51.3 µM | TGI (OVCAR-4; read-out: Log TGI (converted)): 83.2 µM | TGI (OVCAR-5; read-out: Log TGI (converted)): 56.2 µM | TGI (OVCAR-8; read-out: Log TGI (converted)): > 100 µM | TGI (786-0; read-out: Log TGI (converted)): 43.7 µM | TGI (ACHN; read-out: Log TGI (converted)): 30.9 µM | GI50 (CAKI-1): > 100 µM | TGI (CAKI-1; read-out: Log TGI (converted)): > 100 µM | TGI (A549; read-out: Log TGI (converted)): > 100 µM | GI50 (IGROV-1): > 100 µM | TGI (IGROV-1; read-out: Log TGI (converted)): > 100 µM | TGI (CCRF-CEM; read-out: Log TGI (converted)): 41.7 µM | TGI (SW-620; read-out: Log TGI (converted)): 79.4 µM | TGI (BT-549; read-out: Log TGI (converted)): 95.5 µM | GI50 (Hs-578T): > 100 µM | TGI (Hs-578T; read-out: Log TGI (converted)): > 100 µM | TGI (RPMI-8226; read-out: Log TGI (converted)): 100 µM | Activity (SF-268): 107% | TGI (K562; read-out: Log TGI (converted)): 43.7 µM | GI50 (HOP-62): > 100 µM | TGI (HOP-62; read-out: Log TGI (converted)): > 100 µM | GI50 (HOP-92): 25.1 µM | TGI (HOP-92; read-out: Log TGI (converted)): 64.6 µM | TGI (NCI-H226; read-out: Log TGI (converted)): > 100 µM | TGI (NCI-H322M; read-out: Log TGI (converted)): > 100 µM | TGI (NCI-H460; read-out: Log TGI (converted)): > 100 µM | TGI (NCI-H522; read-out: Log TGI (converted)): 64.6 µM | TGI (COLO 205; read-out: Log TGI (converted)): 47.9 µM | TGI (HCC 2998; read-out: Log TGI (converted)): > 100 µM | TGI (HCT-15; read-out: Log TGI (converted)): 40.7 µM | TGI (HT-29; read-out: Log TGI (converted)): 75.9 µM | GI50 [1]: 14.8 µM | TGI ([1]; read-out: Log TGI (converted)): 38.9 µM | GI50 (M14): 35.5 µM | TGI (M14; read-out: Log TGI (converted)): > 100 µM | TGI (SK-MEL-2; read-out: Log TGI (converted)): > 100 µM | TGI (SK-MEL-5; read-out: Log TGI (converted)): > 100 µM | GI50 (UACC-257): 40.7 µM | TGI (UACC-257; read-out: Log TGI (converted)): > 100 µM | GI50 (UACC-62): > 100 µM | TGI (UACC-62; read-out: Log TGI (converted)): > 100 µM | GI50 (RXF 393): 25.1 µM | TGI (RXF 393; read-out: Log TGI (converted)): 51.3 µM | GI50 (TK-10): 20.9 µM | TGI (TK-10; read-out: Log TGI (converted)): 39.8 µM | GI50 (SN12C): 22.9 µM | TGI (SN12C; read-out: Log TGI (converted)): 53.7 µM | TGI (MCF7; read-out: Log TGI (converted)): > 100 µM | GI50 (NCI/ADR-RES): 38 µM | TGI (NCI/ADR-RES; read-out: Log TGI (converted)): > 100 µM | TGI (MDA-MB-435; read-out: Log TGI (converted)): > 100 µM | TGI (T47D; read-out: Log TGI (converted)): 61.7 µM
